Reference: patent publication US7622469B2, “2,4-diamino-1,3,5-triazine derivatives” (Hamari Chemicals, Ltd., priority 2002, dated 2009)
Converted amounts (≈) assume the structure as drawn.

Columns and labels:
MRSA 97-115 [1] = assay: Antibacterial activity test (MIC); type: cell-based, methicillin-resistant Staphylococcus aureus; conditions: Mueller-Hinton Broth, 37° C., 20 to 24 hours
How it was run: (§1)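 Broth dilution MIC per the Japanese Society of Chemotherapy standard method in Mueller-Hinton Broth. Strains were grown statically at 37° C for 16 to 20 hours and diluted in sterile saline to 10^5/ml. Compounds were dissolved in methanol and serially diluted twofold in medium, giving 100 μg/ml and 2^n-fold (n=−10 to 1).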

E. coli NIHJ JC-2 [2] = assay: Antibacterial activity test (MIC); type: cell-based; conditions: Mueller-Hinton Broth, 37° C., 20 to 24 hours
How it was run: as §1

P. aeruginosa PAO-1 [3] = assay: Antibacterial activity test (MIC); type: cell-based; conditions: Mueller-Hinton Broth, 37° C., 20 to 24 hours
How it was run: as §1

S. aureus 209PJC [4] = assay: Antibacterial activity test (MIC); type: cell-based; conditions: Mueller-Hinton Broth, 37° C., 20 to 24 hours
How it was run: as §1

MRSA 97-115 [5] = assay: Bactericidal activity test (MBC, phenol coefficient measuring method); type: cell-based, methicillin-resistant Staphylococcus aureus
Procedure: (§2) As a test bacterium, the same bacteria species as those of the antibacterial activity test were used; as a medium to be used, a SCD medium (manufactured by Eiken Chemical Co., Ltd.) was used for pre-culture medium; and a heart infusion bouillon medium (manufactured by Eiken Chemical Co., Ltd.) was used as a medium for growing a live bacterium in a test solution after bactericidal treatment. One platinum loop of a test bacterium was inoculated into 20 ml of a medium, and static culture was carried out at 37° C. for 18 to 20 hours, and the cells were adjusted with a sterilized physiological saline to 1×10^7/ml, which was used as a test bacterium solution.
(§3) Then, a solution of each compound in methanol was subjected to ½ stepwise dilution with sterilized water, each 5 ml was dispensed into a test tube, 0.5 ml of the previously prepared test bacterium solution was added thereto, and the mixture was blended well. After 1 minute, 3 minutes and 5 minutes has passed, 5 μl of the test solution was collected and inoculated into 2 ml of a heart infusion bouillon medium, this was cultured at 37° C. for 40 to 48 hours, and the presence or absence of growth of a bacterium was determined. A test was performed three times, a minimum concentration at which growth of a bacterium was not recognized two or more times was adopted as a minimal bactericidal concentration (MBC value).
(§4) Numerical values in Tables represent MBC expressed in μg/ml unit.

E. coli NIHJ JC-2 [6] = assay: as above; type: cell-based
Procedure: as §2, §3, §4

P. aeruginosa PAO-1 [7] = assay: as above; type: cell-based
Procedure: as §2, §3, §4

S. aureus 209PJC [8] = assay: as above; type: cell-based
Procedure: as §2, §3, §4

Row | SMILES | minimal inhibitory concentration (MIC) (MRSA 97-115 [1]) [µg/mL] | minimal inhibitory concentration (MIC) (E. coli NIHJ JC-2 [2]) [µg/mL] | minimal inhibitory concentration (MIC) (P. aeruginosa PAO-1 [3]) [µg/mL] | minimal inhibitory concentration (MIC) (S. aureus 209PJC [4]) [µg/mL] | minimal bactericidal concentration (MBC) (MRSA 97-115 [5]; 1 min) [µg/mL] | minimal bactericidal concentration (MBC) (MRSA 97-115 [5]; 3 min) [µg/mL] | minimal bactericidal concentration (MBC) (MRSA 97-115 [5]; 5 min) [µg/mL] | minimal bactericidal concentration (MBC) (E. coli NIHJ JC-2 [6]; 1 min) [µg/mL] | minimal bactericidal concentration (MBC) (E. coli NIHJ JC-2 [6]; 3 min) [µg/mL] | minimal bactericidal concentration (MBC) (E. coli NIHJ JC-2 [6]; 5 min) [µg/mL] | minimal bactericidal concentration (MBC) (P. aeruginosa PAO-1 [7]; 1 min) [µg/mL] | minimal bactericidal concentration (MBC) (P. aeruginosa PAO-1 [7]; 3 min) [µg/mL] | minimal bactericidal concentration (MBC) (P. aeruginosa PAO-1 [7]; 5 min) [µg/mL] | minimal bactericidal concentration (MBC) (S. aureus 209PJC [8]; 1 min) [µg/mL] | minimal bactericidal concentration (MBC) (S. aureus 209PJC [8]; 3 min) [µg/mL] | minimal bactericidal concentration (MBC) (S. aureus 209PJC [8]; 5 min) [µg/mL]
1 | CCCCCCCCCC1N=C(N)N=C(N)N1c1ccc(C(C)(C)C)cc1.Cl (centres unmarked) [compound 22] | 0.8 | 25 | 25 | 0.8 | 25 | 25 | 12.5 | 6.3 | 6.3 | 6.3 | 12.5 | 3.1 | 3.1 | 12.5 | 6.3 | 6.3
2 | CCCCCCCCCCC1N=C(N)N=C(N)N1c1ccc(F)c(F)c1F.Cl (centres unmarked) [compound 31] | 3.1 | 12.5 | 25 | 1.6 | 25 | 12.5 | 6.3 | 12.5 | 12.5 | 6.3 | 12.5 | 12.5 | 6.3 | 25 | 12.5 | 12.5
3 | CCCCCCCCNC1=NC(C)(C)N=C(NCc2ccc(C)cc2)N1 [compound 37] | 1.6 (≈ 4.47 µM) | 12.5 (≈ 35 µM) | 25 (≈ 69.9 µM) | 0.8 (≈ 2.24 µM) | 25 (≈ 69.9 µM) | 25 (≈ 69.9 µM) | 12.5 (≈ 35 µM) | 12.5 (≈ 35 µM) | 6.3 (≈ 17.6 µM) | 3.1 (≈ 8.67 µM) | 3.1 (≈ 8.67 µM) | 3.1 (≈ 8.67 µM) | 3.1 (≈ 8.67 µM) | 12.5 (≈ 35 µM) | 6.3 (≈ 17.6 µM) | 6.3 (≈ 17.6 µM)
4 | Br.CCCCCCCCCNC1=NC(C)(C)N=C(NCc2ccccc2)N1 [compound 49] | 0.8 | 12.5 | 25 | 0.4 | 25 | 12.5 | 12.5 | 12.5 | 6.3 | 3.1 | 12.5 | 3.1 | 3.1 | 12.5 | 6.3 | 6.3
5 | CCCCCCCCCCCCCCNC1=NC(C)(C)N=C(N)N1.Cl [compound 72] | 1.6 | 25 | 25 | 0.8 | 25 | 12.5 | 12.5 | 6.3 | 3.1 | 3.1 | 3.1 | 1.6 | 1.6 | 3.1 | 1.6 | 1.6

More lines, main results first:

Row | minimal inhibitory concentration (MIC) (MRSA 97-115 [1]) [µg/mL] | minimal inhibitory concentration (MIC) (E. coli NIHJ JC-2 [2]) [µg/mL] | minimal inhibitory concentration (MIC) (P. aeruginosa PAO-1 [3]) [µg/mL] | minimal inhibitory concentration (MIC) (S. aureus 209PJC [4]) [µg/mL] | SMILES | minimal bactericidal concentration (MBC) (MRSA 97-115 [5]; 1 min) [µg/mL] | minimal bactericidal concentration (MBC) (MRSA 97-115 [5]; 3 min) [µg/mL] | minimal bactericidal concentration (MBC) (MRSA 97-115 [5]; 5 min) [µg/mL] | minimal bactericidal concentration (MBC) (E. coli NIHJ JC-2 [6]; 1 min) [µg/mL] | minimal bactericidal concentration (MBC) (E. coli NIHJ JC-2 [6]; 3 min) [µg/mL] | minimal bactericidal concentration (MBC) (E. coli NIHJ JC-2 [6]; 5 min) [µg/mL] | minimal bactericidal concentration (MBC) (P. aeruginosa PAO-1 [7]; 1 min) [µg/mL] | minimal bactericidal concentration (MBC) (P. aeruginosa PAO-1 [7]; 3 min) [µg/mL] | minimal bactericidal concentration (MBC) (P. aeruginosa PAO-1 [7]; 5 min) [µg/mL] | minimal bactericidal concentration (MBC) (S. aureus 209PJC [8]; 1 min) [µg/mL] | minimal bactericidal concentration (MBC) (S. aureus 209PJC [8]; 3 min) [µg/mL] | minimal bactericidal concentration (MBC) (S. aureus 209PJC [8]; 5 min) [µg/mL]
6 | 0.8 | 12.5 | 12.5 | 0.4 | CC(=O)O.CCCCCCCCCNC1=NC(C)(C)N=C(NCCc2ccccc2)N1 [compound 56] | 25 | 12.5 | 6.3 | 12.5 | 3.1 | 3.1 | 12.5 | 3.1 | 1.6 | 25 | 12.5 | 6.3
7 | 0.8 | 25 | 50 | 0.8 | CC(=O)O.CCCCCCCCNC1=NC(C)(C)N=C(NCC2CCCCC2)N1 [compound 65] | 25 | 12.5 | 12.5 | 3.1 | 1.6 | 1.6 | 3.1 | 1.6 | 1.6 | 12.5 | 3.1 | 3.1
8 | 0.8 | 12.5 | 50 | 0.8 | CC(=O)O.CCCCCCCNC1=NC(C)(C)N=C(NCCCCCCC)N1 [compound 69] | 25 | 25 | 12.5 | 6.3 | 3.1 | 3.1 | 3.1 | 1.6 | 1.6 | 6.3 | 6.3 | 3.1
